This is an account of results in paper PMC6934184, “Selective DNA-PKcs inhibition extends the therapeutic index of localized radiotherapy and chemotherapy” (The Journal of Clinical Investigation, 2019).

A word on the inhibition: it is how much of the control response was suppressed. Lower therefore signals a response near the control.

Structures are written as SMILES.

For the assay, the target named is T1, PKN1 (PRK1) (Homo sapiens, UniProt Q16512).
T1 construct: purchased Thermo Fisher Scientific (Life Technologies) SelectScreen
Put plainly: SelectScreen Z'LYTE. In kind it is biochemical. The gist of the method: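 SelectScreen broad panel; activity (Z'LYTE, Adapta) plus binding formats. ATP: Km app for CSF1R Z'LYTE; 10 for CAMK1 Adapta. Readout = % per kinase.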

T1 sequence (Q16512 whole entry): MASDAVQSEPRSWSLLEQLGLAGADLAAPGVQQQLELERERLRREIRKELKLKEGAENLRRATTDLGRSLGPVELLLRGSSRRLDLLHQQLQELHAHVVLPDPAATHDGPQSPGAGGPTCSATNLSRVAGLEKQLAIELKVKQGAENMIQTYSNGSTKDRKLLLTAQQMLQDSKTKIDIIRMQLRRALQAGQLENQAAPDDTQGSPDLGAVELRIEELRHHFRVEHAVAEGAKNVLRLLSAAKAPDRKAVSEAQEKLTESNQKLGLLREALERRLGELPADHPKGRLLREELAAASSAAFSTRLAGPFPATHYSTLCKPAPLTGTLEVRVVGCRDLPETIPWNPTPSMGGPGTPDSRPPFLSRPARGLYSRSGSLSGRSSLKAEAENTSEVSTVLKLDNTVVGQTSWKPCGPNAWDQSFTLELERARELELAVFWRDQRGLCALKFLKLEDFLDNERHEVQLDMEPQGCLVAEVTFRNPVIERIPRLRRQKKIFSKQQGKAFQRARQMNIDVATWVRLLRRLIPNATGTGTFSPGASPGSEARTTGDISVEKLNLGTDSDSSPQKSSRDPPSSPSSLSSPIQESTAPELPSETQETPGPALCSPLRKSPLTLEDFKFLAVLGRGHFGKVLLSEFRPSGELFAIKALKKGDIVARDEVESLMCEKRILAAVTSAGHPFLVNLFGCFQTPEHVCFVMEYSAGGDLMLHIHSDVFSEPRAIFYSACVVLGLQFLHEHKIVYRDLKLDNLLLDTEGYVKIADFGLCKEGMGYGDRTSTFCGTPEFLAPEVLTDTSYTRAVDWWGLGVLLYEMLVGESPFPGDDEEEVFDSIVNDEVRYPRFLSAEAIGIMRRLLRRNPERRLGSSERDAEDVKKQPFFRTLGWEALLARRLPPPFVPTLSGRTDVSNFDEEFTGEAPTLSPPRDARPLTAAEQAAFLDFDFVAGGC

On to `CN(C(=O)CN1CCOCC1)c1ccc2sc3c(-c4cccc5c(=O)cc(N6CC7CCC(C6)O7)oc45)cccc3c2c1` [NU5455], for which the inhibition at 1 µM amounted to 3.6%.
